Results published in patent US20240366693A1, “COMPOSITIONS FOR ENHANCING IMMUNOTHERAPY EFFICACY IN COLORECTAL CANCER TREATMENT” (The Chinese University of Hong Kong, priority 2023, published 2024).

How the values were obtained:
[1] = system: CD8+ T cells; assay: Cytotoxic CD8+ T cell markers, T cells from mouse spleen; type: cell-based; conditions: butyrate 1 mM, inosine 0.4 μg/ml
Protocol: T cells isolated from healthy human peripheral blood mononuclear cells (PBMC) using immunomagnetic negative selection kit (17951, Stemcell Technologies, Vancouver, CA). Isolated T cells were then cultured in complete RPMI-1640 medium supplied with human CD3/CD28 magnet beads (11161D, Thermo Fisher Scientific, Waltham, US) and 30 U/ml recombinant human IL-2 (589104, BioLgend, San Diego, US) for expiation and activation for three days. Mouse T cells were isolated from the spleen of naïve mice and purified with Mouse T cell isolation kit (19851, Thermo Fisher Scientific, Waltham, US), cultured in complete RPMI-1640 medium with mouse CD3/CD28 beads (11456D, Thermo Fisher Scientific, Waltham, US) and 30 U/ml recombinant mouse IL-2 (575404, BioLegend, San Diego, US).
Cytotoxic CD8+ T cell markers Granzyme B, IFN-γ, TNF-α under the in vitro treatments of R.i CM, NaBu or TLR5 inbibitor TH1020 (HY-116961, MedChemExpress, Monmouth Junction, US) were analyzed with flow cytometry. Isolated human T cells were stimulated with 30 ng/ml PMA, 1 μg/ml ionomycin and 2.5 μg/ml monensin in complete RPMI-1640 medium at 37° C. for 4 hours. […]

[2] = system: HCT116, LoVo, SW480; assay: Cell apoptosis and cell cycle (flow cytometry, western blot); type: cell-based, human; conditions: R.i CM 5%; butyrate 1 mM; inosine 0.4 μg/ml
Protocol: Flow Cytometry was used for cell apoptosis and cell cycle analysis with FACSAria cell sorter (BD Biosciences, Franklin Lakes, US). Data was analyzed by FlowJo 10.4.
Cell apoptosis was detected by FITC Annexin V apoptosis detection kit (556547, BD Biosciences, Franklin Lakes, US). Adherent cells were removed by Trypsin-EDTA solution and washed with cold PBS twice and then resuspend in binding buffer at a concentration of 1× 10^6 cells/ml. 100 μl of cell solution was transferred to a 5 ml tube, incubated with 5 μl FITC Annexin V and 5 μl PI for 15 minutes at 25° C. in the dark. Cells were added with 400 μl binding buffer to stop staining and analyzed by flow cytometer in one hour.
For cell cycle analysis, cell pellet was washed by PBS and incubated in 70 to 80% ethanol at −20° C. for more than two hours. In each test, 10^6 cells were used for staining in 0.5 ml PI/RNase staining buffer (550825, BD Biosciences, Franklin Lakes, US) for 15 minutes at room temperature in the dark. Tubes were stored at 4° C. protected from light and analyzed on flow cytometer with one hour.

[3] = system: HCT116, LoVo, SW480; assay: Cell viability assay on CRC cells (R. intestinalis example); type: cell-based, human; conditions: R.i CM 5% (vol/vol); butyrate 1 mM; inosine 0.4 μg/ml
Protocol: 1000 cells per well were seed into a 96-well plate and treated with alive or pasteurized E. coli (CFU=10^6/ml) and R. intestinalis (CFU=10^6/ml), 5% (vol/vol) YCFA, E. coli CM, R. i CM in DMEM separately. Cell viability was determined by Thiazolyl Blue Tetrazolium Bromide (M5644, Merck KGaA, Dacmstadt, DE) 3 days constantly.

OC[C@H]1O[C@@H](n2cnc3c(O)ncnc32)[C@H](O)[C@@H]1O [inosine, reference compound]
Granzyme B+, IFN-γ+, TNF-α+ CD8+ T cells [1]: no effects on Granzyme B^+, IFN-γ^+, TNF-α^+ CD8^+ T cells | cell apoptosis [2]: no suppressive effects | cell cycle [2]: no suppressive effects | cell viability of CRC cells [3]: no suppressive effects
